# Laboratory results from patent publication US20170305857A1, “N-ACYLPIPERIDINE ETHER TROPOMYOSIN-RELATED KINASE INHIBITORS” (Pfizer Limited, priority 2014, published 2017).
# pIC50: −log10 of the molar value.
# Target: T1, recombinant His-tagged cytoplasmic domains of TRKA receptor (NTRK1, PV3144, aa 441-796) (Homo sapiens, UniProt P04629)
# T1 construct: aa 441-796; His; purchased Invitrogen PV3144
# Experiment: Isolated TRK enzyme assay (HTRF KinEASE-TK, PV3144 TrkA enzyme assay)
# Assay type: biochemical
# Details: 4 nM enzyme, 40 uM ATP, 35 min, arithmetic mean where more than one reading
# How it was run: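 Enzyme and ATP were preincubated with compound for 20 min at room temperature in buffer with 10 mM MgCl and 2 mM DTT. TK-substrate-Biotin was then added (1 uM final) and the reaction run for an enzyme-specific optimized time. Phosphorylation was read by HTRF, and IC50 values came from sigmoid fits of percent inhibition normalized to plate controls, averaged over replicate readings.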
# T1 sequence (P04629 441-796): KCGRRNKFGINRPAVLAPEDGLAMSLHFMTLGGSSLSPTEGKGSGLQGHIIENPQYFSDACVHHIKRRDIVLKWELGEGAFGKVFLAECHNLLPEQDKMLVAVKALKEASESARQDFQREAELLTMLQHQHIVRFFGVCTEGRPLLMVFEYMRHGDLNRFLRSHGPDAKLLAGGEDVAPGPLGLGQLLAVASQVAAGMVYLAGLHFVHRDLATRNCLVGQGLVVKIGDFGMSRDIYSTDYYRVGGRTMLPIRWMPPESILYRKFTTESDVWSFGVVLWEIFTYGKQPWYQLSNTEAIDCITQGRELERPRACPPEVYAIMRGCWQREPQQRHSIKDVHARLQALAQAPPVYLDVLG
row,pIC50,SMILES
1,7.72,"NC(=O)c1cc(-c2cn(CCO)nn2)ccc1OC1CCN(C(=O)Cc2ccc(OC(F)(F)F)cc2)CC1 [Example 174, 5-[1-(2-hydroxyethyl)-1H-1,2,3-triazol-4-yl]-2-[(1-{[4-(trifluoromethoxy)phenyl]acetyl}piperidin-4-yl)oxy]benzamide]"
2,7.91,"NC(=O)c1cc(-c2cnn(CCO)c2)cnc1OC1CCN(C(=O)Cc2ccc(OC3CC3)cc2)CC1 [Example 176, 2-[(1-{[4-(cyclopropyloxy)phenyl]acetyl}piperidin-4-yl)oxy]-5-[1-(2-hydroxyethyl)-1H-pyrazol-4-yl]pyridine-3-carboxamide]"
3,7.91,"NC(=O)c1cc(-c2cc[nH]n2)ccc1OC1CCN(C(=O)Cc2ccc(OC(F)(F)F)cc2)CC1 [Example 177, 5-(1H-pyrazol-3-yl)-2-[(1-{[4-(trifluoromethoxy)phenyl]acetyl}piperidin-4-yl)oxy]benzamide]"
4,8.07,"Cn1cc(-c2ccc(OC3CCN(C(=O)Cc4ccc(OC5CC5)cc4)CC3)c(C(N)=O)c2)cn1 [Example 178, 2-[(1-{[4-(cyclopropyloxy)phenyl]acetyl}piperidin-4-yl)oxy]-5-(1-methyl-1H-pyrazol-4-yl)benzamide]"
5,7.71,"Cn1cc(-c2ccc(OC3CCN(C(=O)Nc4ccc(OC5CC5)cc4)CC3)c(C(N)=O)c2)cn1 [Example 181, 4-[2-carbamoyl-4-(1-methyl-1H-pyrazol-4-yl)phenoxy]-N-[4-(cyclopropyloxy)phenyl]piperidine-1-carboxamide]"
6,7.82,"Cn1cc(-c2cnc(OC3CCN(C(=O)Cc4ccc(OC(F)(F)F)cc4)CC3)c(C(N)=O)c2)cn1 [Example 182, 5-(1-methyl-1H-pyrazol-4-yl)-2-[(1-{[4-(trifluoromethoxy)phenyl]acetyl}piperidin-4-yl)oxy]pyridine-3-carboxamide]"

# More lines, now with the values behind:
row,SMILES,pIC50
1,"NC(=O)c1cc(-c2cnn(CCO)c2)ncc1OC1CCN(C(=O)Cc2ccc(OC(F)(F)F)cc2)CC1 [Example 175, 2-[1-(2-hydroxyethyl)-1H-pyrazol-4-yl]-5-[(1-{[4-(trifluoromethoxy)phenyl]acetyl}piperidin-4-yl)oxy]pyridine-4-carboxamide]",7.77
2,"Cc1nc[nH]c1-c1cnc(OC2CCN(C(=O)Cc3ccc(OC(F)(F)F)cc3)CC2)c(C(N)=O)c1 [Example 179, 5-(4-methyl-1H-imidazol-5-yl)-2-[(1-{[4-(trifluoromethoxy)phenyl]acetyl}piperidin-4-yl)oxy]pyridine-3-carboxamide]",7.88
3,NC(=O)c1cc(-c2cscn2)cnc1OC1CCN(C(=O)Cc2ccc(OC(F)(F)F)cc2)CC1 [Example 180],8.08
4,"NC(=O)c1cc(-c2c[nH]c(C(F)(F)F)n2)cnc1O[C@@H]1CCN(C(=O)Cc2ccc(OC(F)(F)F)cc2)C[C@@H]1F [Example 183, 2-{[(3S,4R)-3-fluoro-1-{[4-(trifluoromethoxy)phenyl]acetyl}piperidin-4-yl]oxy}-5-[2-(trifluoromethyl)-1H-imidazol-4-yl]pyridine-3-carboxamide]",8.15
